≈ marks a conversion by molar mass, not a printed value. Calls of active or inactive are those of the source. The calls are words filed in the database; no cut-off is given here.
Assays:
[1] = system: Salmonella typhimurium; assay: Antimicrobial activity against Salmonella typhimurium MTCC 3732 at 50 ug/mL after 12 hrs by well diffusion method; assay type: functional; conditions: for diameter of the inhibition zone (DIZ): Salmonella enterica subsp. enterica serovar Typhimurium; for zone of inhibition at 50 µg/mL: Salmonella enterica, MTCC 3732, 12 h, read-out: DIZ
[2] = system: Staphylococcus aureus; assay: Antimicrobial activity against Staphylococcus aureus MTCC 3160 at 100 ug/mL after 12 hrs by well diffusion method; assay type: functional; conditions: for zone of inhibition at 100 µg/mL: MTCC 3160, 12 h, read-out: DIZ
[3] = system: Candida albicans; assay: Antimicrobial activity against Candida albicans MTCC 183 after 12 hrs by well diffusion method; assay type: functional; conditions: MTCC 183, 12 h
[4] = system: Candida albicans; assay: Antimicrobial activity against Candida albicans MTCC 183 at 50 ug/mL after 12 hrs by well diffusion method; assay type: functional; conditions: for zone of inhibition at 50 µg/mL: MTCC 183, 12 h, read-out: DIZ
[5] = system: Candida albicans; assay: Antimicrobial activity against Candida albicans MTCC 183 at 100 ug/mL after 12 hrs by well diffusion method; assay type: functional; conditions: for zone of inhibition at 100 µg/mL: MTCC 183, 12 h, read-out: DIZ
[6] = system: Pseudomonas aeruginosa; assay: Antimicrobial activity against Pseudomonas aeruginosa MTCC 4673 after 12 hrs by well diffusion method; assay type: functional; conditions: MTCC 4673, 12 h
[7] = system: Salmonella typhimurium; assay: Antimicrobial activity against Salmonella typhimurium MTCC 3732 after 12 hrs by well diffusion method; assay type: functional, Salmonella enterica subsp. enterica serovar Typhimurium; conditions: Salmonella enterica, MTCC 3732, 12 h
[8] = system: Penicillium chrysogenum; assay: Antimicrobial activity against Penicillium chrysogenum MTCC 6795 at 50 to 100 ug/mL after 48 hrs by well diffusion method; assay type: functional, organism-based
[9] = system: Pseudomonas aeruginosa; assay: Antimicrobial activity against Pseudomonas aeruginosa MTCC 4673 at 100 ug/mL after 12 hrs by well diffusion method; assay type: functional; conditions: for zone of inhibition at 100 µg/mL: MTCC 4673, 12 h, read-out: DIZ
[10] = system: Salmonella typhimurium; assay: Antimicrobial activity against Salmonella typhimurium MTCC 3732 at 100 ug/mL after 12 hrs by well diffusion method; assay type: functional; conditions: for diameter of the inhibition zone (DIZ): Salmonella enterica subsp. enterica serovar Typhimurium; for zone of inhibition at 100 µg/mL: Salmonella enterica, MTCC 3732, 12 h, read-out: DIZ
[11] = system: Staphylococcus aureus; assay: Antimicrobial activity against Staphylococcus aureus MTCC 3160 after 12 hrs by well diffusion method; assay type: functional; conditions: MTCC 3160, 12 h
[12] = system: Mycolicibacterium smegmatis; assay: Antimicrobial activity against Mycobacterium smegmatis MTCC 943 at 50 ug/mL after 12 hrs by well diffusion method; assay type: functional; conditions: for zone of inhibition at 50 µg/mL: MTCC 943, 12 h, read-out: DIZ
[13] = system: Staphylococcus aureus; conditions: MTCC 3160, 50 ug/mL
Description: Antimicrobial activity against Staphylococcus aureus MTCC 3160 at 50 ug/mL after 12 hrs by well diffusion method

[14] = system: Mycolicibacterium smegmatis; assay: Antimicrobial activity against Mycobacterium smegmatis MTCC 943 at 100 ug/mL after 12 hrs by well diffusion method; assay type: functional; conditions: for zone of inhibition at 100 µg/mL: MTCC 943, 12 h, read-out: DIZ
[15] = system: Pseudomonas aeruginosa; assay: Antimicrobial activity against Pseudomonas aeruginosa MTCC 4673 at 50 ug/mL after 12 hrs by well diffusion method; assay type: functional; conditions: for zone of inhibition at 50 µg/mL: MTCC 4673, 12 h, read-out: DIZ
[16] = system: Mycolicibacterium smegmatis; assay: Antimicrobial activity against Mycobacterium smegmatis MTCC 943 after 12 hrs by well diffusion method; assay type: functional; conditions: MTCC 943, 12 h

Compound | diameter of the inhibition zone (DIZ) [1] | diameter of the inhibition zone (DIZ) [2] | MIC [3] [µg/mL] | diameter of the inhibition zone (DIZ) [4] | diameter of the inhibition zone (DIZ) [5] | MIC [6] [µg/mL] | MIC [7] [µg/mL] | Activity [8] | zone of inhibition at 100 µg/mL [9] [mm] | diameter of the inhibition zone (DIZ) [10] | MIC [11] [µg/mL] | zone of inhibition at 50 µg/mL [12] [mm] | DIZ [13] | zone of inhibition at 100 µg/mL [14] [mm] | zone of inhibition at 50 µg/mL [15] [mm] | MIC [16] [µg/mL] | zone of inhibition at 100 µg/mL [2] [mm] | zone of inhibition at 100 µg/mL [5] [mm] | diameter of the inhibition zone (DIZ) [12] | diameter of the inhibition zone (DIZ) [14] | also measured
N#Cc1ccc(Cn2cc(C(=O)NN)c(=O)c3ccc(C(F)(F)F)cc32)cc1 | inactive | inactive | > 100 | inactive | inactive | 25 (≈ 64.7 µM) | > 100 | inactive | 8 | inactive | > 100 | 8 | inactive | 8 | 8 | 25 (≈ 64.7 µM) | – | – | – | – | –
NNC(=O)c1cn(Cc2ccc(Cl)cc2Cl)c2cc(C(F)(F)F)ccc2c1=O | inactive | – | 100 (≈ 232 µM) | inactive | – | 25 (≈ 58.1 µM) | > 100 | – | 8 | inactive | 100 (≈ 232 µM) | 9 | inactive | 9 | 8 | 25 (≈ 58.1 µM) | 8 | 7 | – | – | –
N#Cc1ccc(Cn2cc(C(=O)O)c(=O)c3ccc(C(F)(F)F)cc32)cc1 | inactive | inactive | 50 (≈ 134 µM) | – | – | 25 (≈ 67.1 µM) | > 100 | – | 8 | inactive | > 100 | – | inactive | – | 8 | > 100 | – | 8.33 | inactive | inactive | zone of inhibition at 50 µg/mL [4]: 7.6 mm
N#Cc1ccc(Cn2cc(C(=O)NN)c(=O)c3cccc(C(F)(F)F)c32)cc1 | inactive | – | > 100 | inactive | inactive | 25 (≈ 64.7 µM) | > 100 | inactive | 8 | inactive | 100 (≈ 259 µM) | 7.3 | inactive | 8 | 8 | 50 (≈ 129 µM) | 8 | – | – | – | –
C#CCn1cc(C(=O)OCC)c(=O)c2ccc(C(F)(F)F)cc21 | – | – | 100 (≈ 309 µM) | inactive | – | 50 (≈ 155 µM) | 25 (≈ 77.3 µM) | – | 8 | – | 100 (≈ 309 µM) | – | inactive | 9 | 7 | 100 (≈ 309 µM) | 9 | 8.33 | inactive | – | zone of inhibition at 50 µg/mL [1]: 10.3 mm; zone of inhibition at 100 µg/mL [10]: 11 mm
NNC(=O)c1cn(Cc2ccc(Cl)cc2Cl)c2c(C(F)(F)F)cccc2c1=O | – | – | > 100 | inactive | inactive | 25 (≈ 58.1 µM) | 25 (≈ 58.1 µM) | inactive | 8 | – | 100 (≈ 232 µM) | – | inactive | – | 8 | > 100 | 9 | – | inactive | inactive | zone of inhibition at 50 µg/mL [1]: 11.3 mm; zone of inhibition at 100 µg/mL [10]: 12 mm
C#CCn1cc(C(=O)OCC)c(=O)c2cccc(C(F)(F)F)c21 | inactive | inactive | – | inactive | inactive | – | – | – | – | inactive | – | – | inactive | – | – | – | – | – | inactive | inactive | diameter of the inhibition zone (DIZ) [9]: inactive; diameter of the inhibition zone (DIZ) [15]: inactive
O=C(O)c1cn(Cc2ccc(Cl)cc2Cl)c2c(C(F)(F)F)cccc2c1=O | inactive | – | 50 (≈ 120 µM) | – | – | 25 (≈ 60.1 µM) | > 100 | – | 14 | inactive | 100 (≈ 240 µM) | 11 | inactive | 12 | 13.6 | 25 (≈ 60.1 µM) | 9 | 9 | – | – | zone of inhibition at 50 µg/mL [4]: 7 mm

Reference: ChEMBL document CHEMBL2424533, “Design and regioselective synthesis of trifluoromethylquinolone derivatives as potent antimicrobial agents” (2013)
